Legend:
[1] = test system: Diamondback Moth, Plutella xylostella; assay: Diamondback moth percent control on treated cabbage leaf discs (track sprayer), synergy by Colby's equation; type: in vivo
Excerpt: (§1) The method described in Colby S. R., “Calculating Synergistic and Antagonistic Responses of Herbicide Combinations,” Weeds, 1967, 15, 20-22 was used to determine an existence of synergic effect between the ecdysone receptor agonist compound and the pesticide in the formulated pesticidal composition. In this method, the percent insect control of the formulated pesticidal composition as observed in the study was compared to the “expected” percent control (E) as calculated by equation (1) (hereinafter “Colby's equation”) below: […]
(§2) X is the percentage of control with the first pesticide at a given rate (p),
(§3) Y is the percentage of control with the second pesticide at a given rate (q), and
E is the expected control by the first and second pesticide at a rate of p+q.
Bioassays were performed for different active compounds. […] The “Colby's Expected Action” was calculated using Colby's equation as discussed previously.
(§4) Bioassays were performed for different active compounds. […] The “Colby's Expected Action” was calculated using Colby's equation as discussed previously. […]
as §4

[2] = test system: Cotton Aphid, Aphis gossypii (Glover); assay: Cotton aphid percent control on treated cotton plants (track sprayer), synergy by Colby's equation; type: in vivo; conditions: cotton plants at cotyledon stage
Excerpt: as §1, §2, §3
E is the expected control by the first and second pesticide at a rate of p+q. […]
Cotton plants at cotyledon stage were treated with different active compounds using track sprayer. […] The percent control of the pesticidal composition against cotton aphid, Aphis gossypii (Glover), was determined as the “Observed” action, and compared to those obtained by using about 0.002 weight % of compound II, and using about 0.005 weight % of methoxyfenozide alone. The “Colby's Expected Action” was calculated using Colby's equation as discussed previously.

SMILES: CCN(C(=O)CCSCCC(F)(F)F)c1cn(-c2cccnc2)nc1Cl [Compound I, N-(3-chloro-1-(pyridin-3-yl)-1H-pyrazol-4-yl)-N-ethyl-3-((3,3,3-trifluoropropyl)thio)propanamide]
- Average % Control Five Days After Treatment ([1]; Compound I alone (1:0), average of 0.0025, 0.000625 and 0.0001531 weight %): 7.58%

SMILES: CCN(C(=O)CC[S+]([O-])CCC(F)(F)F)c1cn(-c2cccnc2)nc1Cl (stereo not shown) [Compound II, N-(3-chloro-1-(pyridin-3-yl)-1H-pyrazol-4-yl)-N-ethyl-3-((3,3,3-trifluoropropyl)sulfinyl)propanamide]
- % Control Three Days After Treatment ([2]; Compound II alone, dose rate 0.002 weight %): 28%

SMILES: COc1cccc(C(=O)NN(C(=O)c2cc(C)cc(C)c2)C(C)(C)C)c1C [Methoxyfenozide, 3-methoxy-2-methylbenzoic acid 2-(3,5-dimethylbenzoyl)-2-(1,1-dimethylethyl)hydrazide]
- % Control Three Days After Treatment ([2]; Methoxyfenozide alone, dose rate 0.005 weight %): 23%
- Average % Control Five Days After Treatment ([1]; Methoxyfenozide alone (0:1), average of 0.02, 0.005, 0.00125 and 0.0003125 weight %): 15.9%

Reference: patent US9295258B2, “Synergistic pesticidal compositions and related methods” (DOW AGROSCIENCES LLC, priority 2013, dated 2016)
